Assay results as given in US9216222B2 (priority 2013, dated 2015).

Legend:
methemoglobin (metHb) [1] = system: methemoglobin (metHb); set-up: species or system rats; details: rat, in vivo
methemoglobin (metHb) [2] = details: in vivo; cited from earlier work

In the case of `CC(C)CCON=O` [Isoamyl Nitrite, 3-methylbutyl nitrite], the “metHb levels achieved (can reach)” value (methemoglobin (metHb) [1]) is reported as no less than 20.0%.

In the case of `CCCCCO[N+](=O)[O-]` [amyl nitrate], the “maximum metHb levels” value (methemoglobin (metHb) [2]) is given as 3.45-7.0%.
